Results as given in ChEMBL document CHEMBL4402592, “Targeting Endoplasmic Reticulum α-Glucosidase I with a Single-Dose Iminosugar Treatment Protects against Lethal Influenza and Dengue Virus Infections” (J Med Chem, 2020).
Calls of active or inactive are those of the source. The calls are words filed in the database; no cut-off is given here.

Columns and labels:
Mus musculus [1] = assay: In vivo inhibition of ERGlu1 in BALB/c mouse assessed as increase in tri-glucosylated FOS level in serum at >250 mg/kg, po administered via gavage as single dose at 8 hrs post-infection measured at 8 hrs post-dose by NP-HPLC analysis; assay type: functional, organism-based
Influenza A virus [2] = assay: Antiviral activity against Influenza A virus (A/Texas/36/1991(H1N1)) infected in BALB/c mouse assessed as animal survival at 100 mg/kg, po administered via gavage starting at 8 hrs post-infection and continuing TID for 5 days (reference value: 0%); assay type: functional
Mus musculus [3] = assay: In vivo inhibition of ERGlu2 in BALB/c mouse assessed as increase in mono-glucosylated FOS level in serum at 100 mg/kg, po administered via gavage starting at 8 hrs post-infection and continuing tid for 5 days and measured at 8 hrs post-final dose by NP-HPLC analysis; assay type: functional, organism-based
Influenza A virus [4] = assay: Antiviral activity against Influenza A virus (A/Texas/36/1991(H1N1)) infected in BALB/c mouse assessed as animal survival at 750 mg/kg, po administered via gavage as two doses at 8 and 32 hrs post infection (reference value: 0%); assay type: functional
Influenza A virus [5] = assay: Antiviral activity against Influenza A virus (A/Texas/36/1991(H1N1)) infected in BALB/c mouse assessed as animal survival at 500 mg/kg, po administered via gavage as two doses at 8 and 32 hrs post infection (reference value: 0%); assay type: functional
Influenza A virus [6] = assay: Antiviral activity against Influenza A virus (A/Texas/36/1991(H1N1)) infected in BALB/c mouse assessed as animal survival at 250 mg/kg, po administered via gavage as two doses at 8 and 32 hrs post infection (reference value: 0%); assay type: functional
Influenza A virus [7] = assay: Antiviral activity against Influenza A virus (A/Texas/36/1991(H1N1)) infected in BALB/c mouse assessed as animal survival at 500 mg/kg, po administered via gavage as single dose at 24 hrs post infection (reference value: 0%); assay type: functional
Influenza A virus [8] = assay: Antiviral activity against Influenza A virus (A/Texas/36/1991(H1N1)) infected in BALB/c mouse assessed as median death time at 500 mg/kg, po administered via gavage as single dose at 8 hrs post infection; assay type: functional
Influenza A virus [9] = assay: Antiviral activity against Influenza A virus (A/Texas/36/1991(H1N1)) infected in BALB/c mouse assessed as median death time at 250 mg/kg, po administered via gavage as single dose at 8 hrs post infection; assay type: functional
Influenza A virus [10] = assay: Antiviral activity against Influenza A virus (A/Texas/36/1991(H1N1)) infected in BALB/c mouse assessed as median death time at 750 mg/kg, po administered via gavage as three dosed at 8, 32 and 56 hrs post infection (reference value: 8 days); assay type: functional
Influenza A virus [11] = assay: Antiviral activity against Influenza A virus (A/Texas/36/1991(H1N1)) infected in BALB/c mouse assessed as median death time at 500 mg/kg, po administered via gavage as three dosed at 8, 32 and 56 hrs post infection (reference value: 8 days); assay type: functional
Influenza A virus [12] = assay: Antiviral activity against Influenza A virus (A/Texas/36/1991(H1N1)) infected in BALB/c mouse assessed as median death time at 750 mg/kg, po administered via gavage as single dose at 16 hrs post infection (reference value: 8.5 days); assay type: functional
dengue virus type 2 [13] = assay: Antiviral activity against Dengue virus 2 S221 infected in DENV antibody dependent enhancement AG129 mouse model assessed as animal survival at 250 mg/kg, po administered via gavage as two doses at 8 and 24 hrs post infection (reference value: 4%); assay type: functional
dengue virus type 2 [14] = assay: Antiviral activity against Dengue virus 2 S221 infected in DENV antibody dependent enhancement AG129 mouse model assessed as animal survival at 250 mg/kg, po administered via gavage as two doses at 36 and 52 hrs post infection (reference value: 4%); assay type: functional
dengue virus type 2 [15] = assay: Antiviral activity against Dengue virus 2 S221 infected in DENV antibody dependent enhancement AG129 mouse model assessed as animal survival at 375 mg/kg, po administered via gavage as two doses at 36 and 52 hrs post infection (reference value: 4%); assay type: functional
dengue virus type 2 [16] = assay: (§1) Antiviral activity against Dengue virus 2 S221 infected in DENV antibody dependent enhancement AG129 mouse model assessed as reduction in KC-GRO level at 750 mg/kg, po administered via gavage as single dose at 36 hrs post infection measured at 60 hrs post-infection by electrochemiluminescence based method; assay type: functional, organism-based
dengue virus type 2 [17] = assay: as §1, with “IL-12/IL-23p40” for “KC-GRO”, “two doses” for “single dose”, “36 hrs and 52” for “36”; assay type: functional, organism-based
dengue virus type 2 [18] = assay: as §1, with “IL-12/IL-23p40” for “KC-GRO”, “two doses” for “single dose”, “36 hrs and 52” for “36”, “72” for “60”; assay type: functional, organism-based
[19] = Toxicity in po dosed cynomolgus monkey assessed as maximum tolerated dose administered via gavage as single dose; assay type: organism-based, Macaca fascicularis; settings: in vivo
dengue virus type 2 [20] = assay: Antiviral activity against Dengue virus 2 S221 infected in DENV antibody dependent enhancement AG129 mouse model assessed as animal survival at 750 mg/kg, po administered via gavage as two doses at 48 and 64 hrs post infection (reference value: 4%); assay type: functional
dengue virus type 2 [21] = assay: Antiviral activity against Dengue virus 2 S221 infected in DENV antibody dependent enhancement AG129 mouse model assessed as reduction in viremia by measuring foci of BHK21 cells containing DENV E at 750 mg/kg, po administered via gavage as two doses at 36 hrs and 52 hrs post infection measured after titration of compound treated infected animal serum with BHK21 cells by TrueBlue staining based focus forming assay; assay type: functional, organism-based
dengue virus type 2 [22] = assay: as §1, with “TNF-alpha” for “KC-GRO”, “52” for “60”; assay type: functional, organism-based
Mus musculus [23] = assay: In vivo inhibition of ERGlu1 in BALB/c mouse assessed as increase in mono-glucosylated FOS level in serum at 100 to 1000 mg/kg, po administered via gavage at 8 hrs post-infection and measured at 8 hrs post-dose by NP-HPLC analysis; assay type: functional, organism-based
Mus musculus [24] = assay: In vivo inhibition of ERGlu2 in BALB/c mouse assessed as increase in mono-glucosylated FOS level in lung at 100 mg/kg, po administered via gavage starting at 8 hrs post-infection and continuing tid for 5 days and measured at 8 hrs post-final dose by NP-HPLC analysis; assay type: functional, organism-based
Mus musculus [25] = assay: In vivo inhibition of ERGlu1 in BALB/c mouse assessed as increase in mono-glucosylated FOS level in spleen at 100 to 1000 mg/kg, po administered via gavage at 8 hrs post-infection and measured at 8 hrs post-dose by NP-HPLC analysis; assay type: functional, organism-based
Mus musculus [26] = assay: In vivo inhibition of ERGlu1 in BALB/c mouse assessed as increase in mono-glucosylated FOS level in lung at 100 to 1000 mg/kg, po administered via gavage at 8 hrs post-infection and measured at 8 hrs post-dose by NP-HPLC analysis; assay type: functional, organism-based
Mus musculus [27] = assay: In vivo inhibition of ERGlu2 in BALB/c mouse assessed as increase in mono-glucosylated FOS level in lung at 20 mg/kg, po administered via gavage starting at 8 hrs post-infection and continuing tid for 5 days and measured at 8 hrs post-final dose by NP-HPLC analysis; assay type: functional, organism-based

COCCCCCCCCCN1C[C@H](O)[C@@H](O)[C@H](O)[C@H]1CO.Cl
inhibition (Mus musculus [1]): Active | survival at 100 mg/kg (Influenza A virus [2]): 90% | inhibition (Mus musculus [3]): Active | survival at 750 mg/kg (Influenza A virus [4]): 100% | survival at 500 mg/kg (Influenza A virus [5]): 100% | survival at 250 mg/kg (Influenza A virus [6]): 60% | survival at 500 mg/kg (Influenza A virus [7]): 30% | Time (Influenza A virus [8]): 12.5 days | Time (Influenza A virus [9]): 8 days | Time (Influenza A virus [10]): >14 days | Time (Influenza A virus [11]): >14 days | Time (Influenza A virus [12]): >14 days | survival at 250 mg/kg (dengue virus type 2 [13]): 86% | survival at 250 mg/kg (dengue virus type 2 [14]): 100% | survival at 375 mg/kg (dengue virus type 2 [15]): 100% | Activity (dengue virus type 2 [16]): Active | Activity (dengue virus type 2 [17]): Active | Activity (dengue virus type 2 [18]): Active | MTD [19]: 258 mg/kg | survival at 750 mg/kg (dengue virus type 2 [20]): 100% | Activity (dengue virus type 2 [21]): Active | Activity (dengue virus type 2 [22]): Active | inhibition (Mus musculus [23]): Active | inhibition (Mus musculus [24]): Active | inhibition (Mus musculus [25]): Active | inhibition (Mus musculus [26]): Active | inhibition (Mus musculus [27]): Active
